Reference: patent US12492181B2, “Gem-disubstituted piperidine melanocortin subtype-2 receptor (MC2R) antagonists and uses thereof” (Crinetics Pharmaceuticals, Inc., priority 2019, dated 2025)

What follows are compounds tested against T1, hMC2 receptor (crude hMC2R membranes from CRE-bla-CHO-K1 cells stably expressing hMC2 receptor and hMRAP accessory protein) (Homo sapiens, UniProt Q01718) (assay: hMC2 membrane binding assay ([125I]ACTH (1-39) Tyr23, SPA)). Settings: displacement of 0.2 nM [125I]ACTH (1-39) Tyr23 from hMC2R membranes, 1.5 hours at room temperature; read-out: MC2R binding potency.
T1 construct: crude membrane fractions
T1 sequence (Q01718 whole entry): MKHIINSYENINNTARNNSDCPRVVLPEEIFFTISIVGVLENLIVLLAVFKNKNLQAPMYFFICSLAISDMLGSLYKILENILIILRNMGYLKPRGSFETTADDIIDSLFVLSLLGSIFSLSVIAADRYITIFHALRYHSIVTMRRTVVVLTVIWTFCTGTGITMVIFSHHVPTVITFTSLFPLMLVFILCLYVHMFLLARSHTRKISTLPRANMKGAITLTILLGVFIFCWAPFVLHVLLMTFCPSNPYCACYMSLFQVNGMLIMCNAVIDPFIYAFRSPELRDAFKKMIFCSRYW
T1 sequence (Q8TCY5 whole entry partner): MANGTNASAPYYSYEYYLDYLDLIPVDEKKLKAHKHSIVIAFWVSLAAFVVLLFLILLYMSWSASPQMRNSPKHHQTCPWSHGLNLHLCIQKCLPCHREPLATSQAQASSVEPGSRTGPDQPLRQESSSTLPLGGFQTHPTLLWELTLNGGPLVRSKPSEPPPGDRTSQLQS
In short: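 Ki values come from non-linear regression of SPA scintillation counts, with compounds displacing [125I]ACTH(1-39) Tyr23. Membranes come from CRE-bla-CHO-K1 cells stably expressing hMC2 receptor together with hMRAP. They are preincubated with WGA-coated PVT SPA beads in 50 mM HEPES pH 7.4 with 0.20% BSA, Mg2+, Ca2+ and protease inhibitors.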

Ki [nM] | SMILES
< 10 | CCOc1ncccc1-c1ccc(C2(NC(=O)N[C@H]3CCN(C)C3)CCN(c3ccc(C(F)(F)F)cc3C#N)CC2)cn1 [Compound 2-20, 1-{1-[2-cyano-4-(trifluoromethyl)phenyl]-4-{2′-ethoxy-[2,3′-bipyridin]-5-yl}piperidin-4-yl}-3-[(3S)-1-methylpyrrolidin-3-yl]urea]
< 10 | COc1ccccc1-c1ncc(C2(NC(=O)CN(C)C)CCN(c3ccc(C(F)(F)F)cc3C#N)CC2)cc1F [Compound 2-61, N-{1-[2-cyano-4-(trifluoromethyl)phenyl]-4-[5-fluoro-6-(2-methoxyphenyl)pyridin-3-yl]piperidin-4-yl}-2-(dimethylamino)acetamide]
< 10 | CCOc1ncccc1-c1ccc(C2(NC(=O)N3CC[C@@H](NC)C3)CCN(c3ccc(C(F)(F)F)cc3C#N)CC2)cn1 [Compound 2-21]
< 10 | CCOc1ncccc1-c1ccc(C2(NC(=O)O[C@H]3CCN(C)C3)CCN(c3ccc(C(F)(F)F)cc3C#N)CC2)cn1 [Compound 2-18, (3S)-1-methylpyrrolidin-3-yl N-{1-[2-cyano-4-(trifluoromethyl)phenyl]-4-{2′-ethoxy-[2,3′-bipyridin]-5-yl}piperidin-4-yl}carbamate]
10 to 100 | CCOc1ncccc1-c1ccc(C2(NC(=O)[C@H]3CCCN3C)CCN(c3ccc(C(F)(F)F)cc3C#N)CC2)cc1 [Compound 2-17, (2R)—N-{1-[2-cyano-4-(trifluoromethyl)phenyl]-4-[4-(2-ethoxypyridin-3-yl)phenyl]piperidin-4-yl}-1-methylpyrrolidine-2-carboxamide]
< 10 | CCOc1ccccc1-c1ccc(C2(NC(=O)CCN(C)C)CCN(c3ccc(Cl)cc3C#N)CC2)cn1 [Compound 2-30, N-[1-(4-chloro-2-cyanophenyl)-4-[6-(2-ethoxyphenyl)pyridin-3-yl]piperidin-4-yl]-3-(dimethylamino)propanamide]

The next lines start with the compound.

SMILES | Ki [nM]
CCOc1ncccc1-c1ccc(C2(C(=O)NCCN(C)C)CCN(c3ccc(C(F)(F)F)cc3C#N)CC2)cc1 [Compound 1-8, 1-[2-cyano-4-(trifluoromethyl)phenyl]-N-[2-(dimethylamino)ethyl]-4-[4-(2-ethoxypyridin-3-yl)phenyl]piperidine-4-carboxamide] | < 10
CCOc1ncccc1-c1ccc(C2(C(=O)N[C@@H]3CCN(C)C3)CCN(c3ccc(C(F)(F)F)cc3C#N)CC2)cn1 [Compound 1-9, 1-[2-cyano-4-(trifluoromethyl)phenyl]-4-{2′-ethoxy-[2,3′-bipyridin]-5-yl}-N-[(3R)-1-methylpyrrolidin-3-yl]piperidine-4-carboxamide] | < 10
CCOc1ncccc1-c1ccc(C2(C(=O)N[C@@H]3CCN(C)C3)CCN(c3ccc(C(F)(F)F)cc3C#N)CC2)nc1 [Compound 1-22, 1-[2-cyano-4-(trifluoromethyl)phenyl]-4-{2′-ethoxy-[3,3′-bipyridin]-6-yl}-N-[(3R)-1-methylpyrrolidin-3-yl]piperidine-4-carboxamide] | < 10
CNCCNC(=O)C1(c2ccc(-c3ccccc3OC)nc2)CCN(c2ccc(C(F)(F)F)cc2F)CC1 [Compound 1-256, 1-[2-fluoro-4-(trifluoromethyl)phenyl]-4-[6-(2-methoxyphenyl)pyridin-3-yl]-N-[2-(methylamino)ethyl]piperidine-4-carboxamide] | < 10
CCOc1ncccc1-c1ncc(C2(C(=O)N[C@@H]3CCN(C)C3)CCN(c3ccc(C(F)(F)F)cc3C#N)CC2)cn1 [Compound 1-107, 1-[2-cyano-4-(trifluoromethyl)phenyl]-4-[2-(2-ethoxypyridin-3-yl)pyrimidin-5-yl]-N-[(3R)-1-methylpyrrolidin-3-yl]piperidine-4-carboxamide] | < 10
Cn1cccc1-c1ccc(C2(C(=O)N[C@@H]3C[C@@H]3N)CCN(c3ccc(C(F)(F)F)cc3C#N)CC2)cn1 (racemic) [Compound 1-258, rac-N-[(1R,2S)-2-aminocyclopropyl]-1-[2-cyano-4-(trifluoromethyl)phenyl]-4-[6-(1-methyl-1H-pyrrol-2-yl)pyridin-3-yl]piperidine-4-carboxamide] | < 10
CCc1ncccc1-c1ccc(C2(C(=O)N[C@@H]3CCN(C)C3)CCN(c3ccc(C(F)(F)F)cc3C#N)CC2)cn1 [Compound 1-118, 1-[2-cyano-4-(trifluoromethyl)phenyl]-4-{2′-ethyl-[2,3′-bipyridin]-5-yl}-N-[(3R)-1-methylpyrrolidin-3-yl]piperidine-4-carboxamide] | < 10
CCOc1ccccc1-c1ccc(C2(C(=O)NC3CN(C)C3)CCN(c3ccc(C(F)(F)F)cc3C#N)CC2)nn1 [Compound 1-136, 1-[2-cyano-4-(trifluoromethyl)phenyl]-4-[6-(2-ethoxyphenyl)pyridazin-3-yl]-N-(1-methylazetidin-3-yl)piperidine-4-carboxamide] | < 10
COCc1ccccc1-c1ccc(C2(C(=O)N[C@@H]3CCN(C)C3)CCN(c3ccc(C(F)(F)F)cc3C#N)CC2)cn1 [Compound 1-79, 1-[2-cyano-4-(trifluoromethyl)phenyl]-4-{6-[2-(methoxymethyl)phenyl]pyridin-3-yl}-N-[(3R)-1-methylpyrrolidin-3-yl]piperidine-4-carboxamide] | < 10
CN(C)CCNC(=O)C1(c2cnc(-c3cccn3C)c(F)c2)CCN(c2ccc(C(F)(F)F)cc2F)CC1 [Compound 1-304, N-[2-(dimethylamino)ethyl]-1-[2-fluoro-4-(trifluoromethyl)phenyl]-4-[5-fluoro-6-(1-methyl-1H-pyrrol-2-yl)pyridin-3-yl]piperidine-4-carboxamide] | < 10
CCOc1ncccc1-c1ccc(C2(C(=O)N[C@H]3CCN(C)C3)CCN(c3ccccc3C#N)CC2)cn1 [Compound 1-32, 1-(2-cyanophenyl)-4-{2′-ethoxy-[2,3′-bipyridin]-5-yl}-N-[(3S)-1-methylpyrrolidin-3-yl]piperidine-4-carboxamide] | 10 to 100
CCOc1ncccc1-c1ccc(C2(C(=O)N[C@@H]3CCN(C)C3)CCN(c3ccc(C(F)(F)F)c(Cl)c3)CC2)cc1 [Compound 1-165, 1-[3-chloro-4-(trifluoromethyl)phenyl]-4-[4-(2-ethoxypyridin-3-yl)phenyl]-N-[(3R)-1-methylpyrrolidin-3-yl]piperidine-4-carboxamide] | 10 to 100
CN1CC[C@H](NC(=O)C2(c3ccc(-c4cccn4C)nn3)CCN(c3ccc(C(F)(F)F)cc3F)CC2)C1 [Compound 1-171, 1-[2-fluoro-4-(trifluoromethyl)phenyl]-4-[6-(1-methyl-1H-pyrrol-2-yl)pyridazin-3-yl]-N-[(3S)-1-methylpyrrolidin-3-yl]piperidine-4-carboxamide] | < 10
COc1ccccc1-c1ccc(C2(C(=O)NC3CN(C)C3)CCN(c3ccc(C(F)(F)F)cc3C#N)CC2)cn1 [Compound 1-94, 1-[2-cyano-4-(trifluoromethyl)phenyl]-4-[6-(2-methoxyphenyl)pyridin-3-yl]-N-(1-methylazetidin-3-yl)piperidine-4-carboxamide] | < 10
